Measured values reported in patent US11344564B1, “Method of treatment based on reduced monoamine oxidase a activity” (Lennham Pharmaceuticals, Inc., priority 2021, dated 2022).

Key:
human MAO-A = target: T1, human MAO-A (Homo sapiens, UniProt P21397); test: in vitro metabolism of psilocin by human MAO-A; assay type: in vitro ADME; conditions: test compound 0.2 and 2 μM; protein 0.03, 0.1, 0.3 and 1 mg/ml; incubation 0-30 min, 37° C., pH 7.4, no cofactors (FIGS. 1A & 1B)
T1 sequence (P21397 1-527): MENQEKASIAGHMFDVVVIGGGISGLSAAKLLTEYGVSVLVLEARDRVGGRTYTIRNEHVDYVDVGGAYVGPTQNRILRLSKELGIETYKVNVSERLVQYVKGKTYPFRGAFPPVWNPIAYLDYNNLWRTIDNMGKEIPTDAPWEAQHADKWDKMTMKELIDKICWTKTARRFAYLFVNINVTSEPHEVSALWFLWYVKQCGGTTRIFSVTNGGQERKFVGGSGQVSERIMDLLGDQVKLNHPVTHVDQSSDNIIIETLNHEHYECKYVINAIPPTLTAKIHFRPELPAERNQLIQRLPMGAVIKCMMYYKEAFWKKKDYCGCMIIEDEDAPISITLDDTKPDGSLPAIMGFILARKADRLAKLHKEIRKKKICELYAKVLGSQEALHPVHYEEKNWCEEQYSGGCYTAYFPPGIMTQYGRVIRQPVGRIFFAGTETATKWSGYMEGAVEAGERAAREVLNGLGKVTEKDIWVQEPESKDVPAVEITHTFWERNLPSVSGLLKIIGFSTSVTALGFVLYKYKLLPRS

human MAO-B = target: T2, human MAO-B (Homo sapiens, UniProt P27338); test: in vitro metabolism of psilocin by human MAO-B; assay type: in vitro ADME; conditions: test compound 0.2 and 2 μM; protein 0.03, 0.1, 0.3 and 1 mg/ml; incubation 0-30 min, 37° C., pH 7.4, no cofactors (FIGS. 1C & 1D)
T2 sequence (P27338 1-520): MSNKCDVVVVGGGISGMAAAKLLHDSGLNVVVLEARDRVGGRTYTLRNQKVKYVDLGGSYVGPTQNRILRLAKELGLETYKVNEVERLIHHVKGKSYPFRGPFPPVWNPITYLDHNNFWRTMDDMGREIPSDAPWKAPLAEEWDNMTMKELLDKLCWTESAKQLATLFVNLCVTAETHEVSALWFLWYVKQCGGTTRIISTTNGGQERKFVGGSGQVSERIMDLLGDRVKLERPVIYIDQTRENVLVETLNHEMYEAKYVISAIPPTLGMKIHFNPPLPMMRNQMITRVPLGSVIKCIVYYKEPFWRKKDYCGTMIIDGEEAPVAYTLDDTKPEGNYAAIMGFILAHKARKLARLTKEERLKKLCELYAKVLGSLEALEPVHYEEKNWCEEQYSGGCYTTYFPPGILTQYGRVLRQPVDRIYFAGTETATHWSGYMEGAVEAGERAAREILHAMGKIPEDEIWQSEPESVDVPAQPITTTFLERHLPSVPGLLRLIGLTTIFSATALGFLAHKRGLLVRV

CN(C)CCc1c[nH]c2cccc(O)c12 [psilocin, 4-hydroxy-N,N-dimethyltryptamine]
metabolism by human MAO-A (human MAO-A): is metabolized by human MAO-A | metabolism by human MAO-B (human MAO-B): not human MAO-B
